# From patent publication US11690852B2, “Reduction of the incidence or recurrence of breast cancer in postmenopausal women treated with intravaginal sex steroid precursor” (Endorecherche, Inc., priority 2020, dated 2023)
# Entries after “also recorded” stand apart in the source; their conditions may differ.
# Legend:
# [1] = tested on: breast cancer; assay: Retrospective cohort analysis of claims data: 1-year recurrence of breast cancer in women with a history of breast cancer (Objective B); type: in vivo
# From the text: (§1) We set out to assess the 1-year incidence rate of breast cancer among women treated with prasterone compared to matched controls of untreated VVA women (Objective A). We also assessed the 1-year recurrence rate of breast cancer among women treated with prasterone with a history of breast cancer compared to matched controls of untreated VVA women (Objective B).
# (§2) In order to evaluate whether total exposure to prasterone in the follow-up window alters the results of the primary objectives A and B, we used sensitivity analyses to stratify patients based on cumulative days of supply.
# (§3) This retrospective cohort analysis was based on claims data from the Integrated Dataverse (IDV) database from Symphony Health Solutions. Data included in the analysis spanned a 5-year period from February 2015 through January 2020. For both objectives, the index date was defined as the first prasterone prescription fill date for treated women and as the initial VVA diagnosis date for untreated women (FIG. 1). Data were included from women who were at least 45 years of age and had at least one year of data available before and after the index date. Women treated with vaginal estrogen or ospem ifene were excluded. History of breast cancer prior to the index date was assessed. Before matching, 47,395 patients with at least one prescription of intravaginal prasterone (6.5 mg suppository) filled and no history of breast cancer were included and 2,986 with a history of breast cancer. Before matching again, 669,623 women were included in the pool of untreated VVA patients without a history of breast cancer, and 53,896 with a history of breast cancer (FIG. 2).
# (§4) To ensure a balanced risk profile across treatment groups the women treated with prasterone were matched with a 1:1 ratio to untreated women based on the following parameters (FIG. 3): • Calendar year • Age • Prior to the index date: • Cancer diagnosis • Breast cancer diagnosis • Use of chemotherapy • Family history of breast cancer • Mammography • Use of estrogen therapy • Obesity and hyperlipidemia • Assessed during the 12 months prior to the index date • Charlson Elixhauser comorbidity index
# (§5) Primary objectives A and B included all women meeting the inclusion criteria and having at least one prescription of prasterone filled. We then set minimum exposure thresholds to stratify patients based on the length of exposure. Thresholds were set at least 90 or 180 days of supply. Incidence (objective A) and recurrence (objective B) analyses were conducted in these new groups.
# [2] = tested on: breast cancer; assay: Retrospective cohort analysis of claims data: 1-year incidence of breast cancer (Objective A); type: in vivo, women
# From the text: as §1, §2, §3, §4, §5
# [3] = tested on: breast intraepithelial neoplasia; settings: 5 mg/d for 3 years; 55% of women menopaused; cited from earlier work
# [4] = tested on: breast cancer; settings: postmenopausal women; testosterone supplements; cited from earlier work
# [5] = all ages (≥45 years old), any days of supply
# [6] = minimum exposure threshold either 90 days or 180 days of supply
compound,measurement,setting,value
"C[C@]12CC[C@H](O)CC1=CC[C@@H]1[C@@H]2CC[C@]2(C)C(=O)CC[C@@H]12 [Intravaginal prasterone, dehydroepiandrosterone]",% of recurrence of breast cancer,[1]; 45 to 54 years old,41.63%
same,recurrence ratio (prasterone / untreated VVA),[1]; 45 to 54 years old,0.84
same,% of recurrence of breast cancer,[1]; 55 to 64 years old,31.42%
same,recurrence ratio (prasterone / untreated VVA),[1]; 55 to 64 years old,0.82
same,% of recurrence of breast cancer,[1]; 65 years old and older,32.77%
same,recurrence ratio (prasterone / untreated VVA),[1]; 65 years old and older,0.91
same,recurrence ratio (prasterone / untreated VVA),[1]; [5],0.85
same,% of recurrence of breast cancer,"[1]; all ages (≥45 years old), any days of supply, history of breast cancer",34.21%
same,Recurrence analysis: % of incidence,[1]; at least 90 days of supply,30.48%
same,recurrence ratio (prasterone / untreated VVA),[1]; at least 90 days of supply,0.83
same,Recurrence analysis: % of incidence,[1]; at least 180 days of supply,30.29%
same,recurrence ratio (prasterone / untreated VVA),[1]; at least 180 days of supply,0.78
same,recurrence of breast cancer compared to the untreated VVA group (in words),"[1]; at least one prescription filled, all ages and three age groups",significantly lower; also recorded: significant reduction of recurrence
same,recurrence of breast cancer compared to the untreated VVA groups (in words),[1]; [6],significant reduction
same,% of incidence of breast cancer,[2]; 45 to 54 years old,0.34%
same,incidence ratio (prasterone / untreated VVA),[2]; 45 to 54 years old,0.85
same,% of incidence of breast cancer,[2]; 55 to 64 years old,0.37%
same,incidence ratio (prasterone / untreated VVA),[2]; 55 to 64 years old,0.87
same,% of incidence of breast cancer,[2]; 65 years old and older,0.58%
same,incidence ratio (prasterone / untreated VVA),[2]; 65 years old and older,1.03
same,incidence ratio (prasterone / untreated VVA),[2]; [5],0.89
same,% of incidence of breast cancer,"[2]; all ages (≥45 years old), any days of supply, 1-year, 6.5 mg suppository",0.39%
same,% of incidence of breast cancer,[2]; at least 90 days of supply,0.28%
same,incidence ratio (prasterone / untreated VVA),[2]; at least 90 days of supply,0.55
same,% of incidence of breast cancer,[2]; at least 180 days of supply,0.25%
same,incidence ratio (prasterone / untreated VVA),[2]; at least 180 days of supply,0.48
same,incidence of breast cancer compared to the untreated VVA group (in words),"[2]; at least one prescription filled, all ages and age groups 45-54, 55-64, 65+",no statistically significant difference; also recorded: no statistical difference
same,incidence of breast cancer compared to the untreated VVA groups (in words),[2]; [6],significant reduction
CC/C(=C(\c1ccccc1)c1ccc(OCCN(C)C)cc1)c1ccccc1 [Tamoxifen],recurrence of breast intraepithelial neoplasia (in words),[3],halve the recurrence of breast intraepithelial neoplasia
C[C@]12CC[C@H]3[C@@H](CCC4=CC(=O)CC[C@@]43C)[C@@H]1CC[C@@H]2O [testosterone],breast cancer incidence (in words),[4],reduction of the breast cancer incidence
